The values below come from BindingDB's records for doi:10.1021/jm00063a004 (Cnrs-Cercoa, 1993).

Structures are written as SMILES.

The target in the test is Trypsin (Sus scrofa) (UniProt P00761). In words: Apparent binding constant against porcine trypsin.
Chain of Trypsin (Sus scrofa) (P00761 whole entry, looked up): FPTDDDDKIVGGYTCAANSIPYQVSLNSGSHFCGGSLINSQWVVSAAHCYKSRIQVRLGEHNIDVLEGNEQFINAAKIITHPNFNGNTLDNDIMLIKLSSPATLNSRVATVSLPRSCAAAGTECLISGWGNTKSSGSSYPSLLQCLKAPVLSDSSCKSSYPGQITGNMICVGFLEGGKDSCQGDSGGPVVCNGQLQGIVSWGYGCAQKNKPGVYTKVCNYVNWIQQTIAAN

`N=C(N)NCCCC1NC(=O)CNC(=O)c2cc(ccc2CBr)NC1=O` (stereo unspecified) [N-[3-(11-Bromomethyl-3,6,9-trioxo-2,5,8-triaza-bicyclo[8.3.1]tetradeca-1(13),10(14),11-trien-4-yl)-propyl]-guanidine]: the Ki was determined as 20 µM.
